Test results as given in patent US20260070928A1, “NOVEL CRYSTALLINE FORMS OF (S)-7-OXA-2-AZA-SPIRO[4.5]DECANE-2-CARBOXYLIC ACID [7-(3,6-DIHYDRO-2H-PYRAN-4-YL)-4-METHOXY-THIAZOLO[4,5-C]PYRIDIN-2-YL]-AMIDE AND CO-CRYSTAL FORMS THEREOF” (Domain Therapeutics S.A., priority 2022, published 2026).

Assays:
[1] = water vapour sorption isotherm (25° C.), DVS intrinsic system; hygroscopicity according to Ph. Eur. 5.11; assay type: physicochemical; conditions: for water uptake levels (water vapour sorption): 25° C.
Excerpt: The amorphous state can be classified as hygroscopic according to Ph. […] The water vapour sorption isotherm was acquired on a DVS intrinsic system from SMS.
Eur. criteria (section 5.11.).
The water vapour sorption isotherm was acquired on a DVS Intrinsic system from SMS.
(§1) The mono fumaric acid co-crystal form A1 is characterised by the following physical properties: • 1 eq. […] The DSC scan of mono fumaric acid co-crystal form A1 was acquired on a Mettler-Toledo DSC1 with a heating rate of 5 K/min, using nitrogen purge gas at 50 mL/min. […] Eur. criteria (section 5.11.). […] The water vapour sorption isotherm was acquired on a DVS intrinsic system from SMS. • The concentration levels of the mono fumaric acid co-crystal form A1 were determined at 37° C. after 15 min and 30 min in non-sink-dissolution experiments.
as §1, with “The hemi” for “The mono”, “form A2” for “form A1”, “• 0.5” for “• 1”, “of the hemi” for “of mono”, “Eur. Criteria” for “Eur. criteria”, “the hemi” for “the mono”

[2] = non-sink dissolution experiments in biorelevant media at 37° C.; assay type: physicochemical; conditions: for Dissolution levels after 15 min / Dissolution levels after 30 min: 37° C., non-sink dissolution; for dissolution behaviour in biorelevant intestinal milieu (FaSSIF) compared to crystalline entities of the free compound: comparison in words
Method: as §1
as §1, with “The hemi” for “The mono”, “form A2” for “form A1”, “• 0.5” for “• 1”, “of the hemi” for “of mono”, “Eur. Criteria” for “Eur. criteria”, “the hemi” for “the mono”

[3] = full relative humidity range 0-98% RH

SMILES: COc1ncc(C2=CCOCC2)c2sc(NC(=O)N3CC[C@@]4(CCCOC4)C3)nc12 [amorphous state, (S)-7-Oxa-2-aza-spiro[4,5]decane-2-carboxylic acid [7-(3,6-dihydro2H-pyran-4-yl)-4-methoxy-thiazolo[4,5-c]pyridin-2-yl]-amide]
- humidity level at which tendencies for deliquescence are shown ([1]; 25° C. water vapour sorption): > 90 % RH
- hygroscopicity classification according to Ph. Eur. criteria (section 5.11.) ([1]; 25° C. water vapour sorption): hygroscopic
- water uptake levels (water vapour sorption) [1, 3]: > 22 % (w/w)

SMILES: COc1ncc(C2=CCOCC2)c2sc(NC(=O)N3CC[C@@]4(CCCOC4)C3)nc12 [crystalline anhydrous form A1, (S)-7-Oxa-2-aza-spiro[4,5]decane-2-carboxylic acid [7-(3,6-dihydro2H-pyran-4-yl)-4-methoxy-thiazolo[4,5-c]pyridin-2-yl]-amide]
- hygroscopicity classification according to Ph. Eur. criteria (section 5.11.) ([1]; 25° C. water vapour sorption): Slightly hygroscopic
- hygroscopicity classification according to Ph. Eur. criteria (section 5.11.) ([1]; 25° C. water vapour sorption, listed as A1 form): slightly hygroscopic
- tendency to undergo hydrate formation upon exposure to elevated RH levels [1]: no tendency to undergo hydrate formation
- water uptake levels (water vapour sorption) ([1]; full relative humidity range 0-98% RH, listed as A1 form): < 1 % (w/w)

SMILES: COc1ncc(C2=CCOCC2)c2sc(NC(=O)N3CC[C@@]4(CCCOC4)C3)nc12 [hemi fumaric acid co-crystal form A2, (S)-7-Oxa-2-aza-spiro[4,5]decane-2-carboxylic acid [7-(3,6-dihydro2H-pyran-4-yl)-4-methoxy-thiazolo[4,5-c]pyridin-2-yl]-amide]
- Dissolution levels after 15 min ([2]; FaSSIF [pH 6.5]): 317 µg/mL
- Dissolution levels after 30 min ([2]; FaSSIF [pH 6.5]): 492 µg/mL
- dissolution behaviour in biorelevant intestinal milieu (FaSSIF) compared to crystalline entities of the free compound [2]: improved dissolution behaviour
- Dissolution levels after 15 min ([2]; FeSSIF [pH 5.0]): 651 µg/mL
- Dissolution levels after 30 min ([2]; FeSSIF [pH 5.0]): 899 µg/mL
- Dissolution levels after 15 min ([2]; SGF [pH 1.2]): 206 µg/mL
- Dissolution levels after 30 min ([2]; SGF [pH 1.2]): 292 µg/mL
- hygroscopicity classification according to Ph. Eur. criteria (section 5.11.) ([1]; 25° C. water vapour sorption): slightly hygroscopic
- water uptake levels (water vapour sorption) ([1]; relative humidity range 0-80% RH): ≤ 0.7 % (w/w)

SMILES: COc1ncc(C2=CCOCC2)c2sc(NC(=O)N3CC[C@@]4(CCCOC4)C3)nc12 [hemi tartaric acid co-crystal form NF2, (S)-7-Oxa-2-aza-spiro[4,5]decane-2-carboxylic acid [7-(3,6-dihydro2H-pyran-4-yl)-4-methoxy-thiazolo[4,5-c]pyridin-2-yl]-amide]
- Dissolution levels after 30 min ([2]; FaSSIF [pH 6.5]): approx. 145 μg/mL

SMILES: COc1ncc(C2=CCOCC2)c2sc(NC(=O)N3CC[C@@]4(CCCOC4)C3)nc12 [mono 3-hydroxybenzoic acid co-crystal form NF1] [(S)-7-Oxa-2-aza-spiro[4,5]decane-2-carboxylic acid [7-(3,6-dihydro2H-pyran-4-yl)-4-methoxy-thiazolo[4,5-c]pyridin-2-yl]-amide]
- hygroscopicity classification according to Ph. Eur. criteria (section 5.11.) ([1]; 25° C. water vapour sorption): Not hygroscopic
- tendency to undergo hydrate formation upon exposure to elevated RH levels [1]: no tendency to undergo hydrate formation

SMILES: COc1ncc(C2=CCOCC2)c2sc(NC(=O)N3CC[C@@]4(CCCOC4)C3)nc12 [mono fumaric acid co-crystal form A1, (S)-7-Oxa-2-aza-spiro[4,5]decane-2-carboxylic acid [7-(3,6-dihydro2H-pyran-4-yl)-4-methoxy-thiazolo[4,5-c]pyridin-2-yl]-amide]
- Dissolution levels after 15 min ([2]; FaSSIF [pH 6.5]): 278 µg/mL
- Dissolution levels after 30 min ([2]; FaSSIF [pH 6.5]): 360 µg/mL
- dissolution behaviour in biorelevant intestinal milieu (FaSSIF) compared to crystalline entities of the free compound [2]: improved dissolution behaviour
- Dissolution levels after 15 min ([2]; FeSSIF [pH 5.0]): 375 µg/mL
- Dissolution levels after 30 min ([2]; FeSSIF [pH 5.0]): 462 µg/mL
- Dissolution levels after 15 min ([2]; SGF [pH 1.2]): 331 µg/mL
- Dissolution levels after 30 min ([2]; SGF [pH 1.2]): 385 µg/mL
- hygroscopicity classification according to Ph. Eur. criteria (section 5.11.) ([1]; 25° C. water vapour sorption): Slightly hygroscopic
- tendency to undergo hydrate formation upon exposure to elevated RH levels [1]: no tendency to undergo hydrate formation
- water uptake levels (water vapour sorption) [1, 3]: < 3 % (w/w)
